Experimental data reported in patent US20250026769A1, “PAPD5 INHIBITORS AND METHODS OF USE THEREOF” (The Children's Medical Center Corporation, priority 2021, published 2025).
Like-named read-outs stand apart in the source and are kept apart here.

Experiments:
[1] = biological target: T1, rPAPD5 (Homo sapiens, UniProt Q8NDF8); test: differential scanning fluorimetry (DSF) binding and stabilization of rPAPD5; conditions: for ΔTm at 100 µM: read-out: ΔTm at 100 μM; for ΔTm at 1 µM: read-out: ΔTm at 1 μM
T1 construct: made in house
T1 sequence (Q8NDF8 68-698 isoform Q8NDF8-5 limits assumed): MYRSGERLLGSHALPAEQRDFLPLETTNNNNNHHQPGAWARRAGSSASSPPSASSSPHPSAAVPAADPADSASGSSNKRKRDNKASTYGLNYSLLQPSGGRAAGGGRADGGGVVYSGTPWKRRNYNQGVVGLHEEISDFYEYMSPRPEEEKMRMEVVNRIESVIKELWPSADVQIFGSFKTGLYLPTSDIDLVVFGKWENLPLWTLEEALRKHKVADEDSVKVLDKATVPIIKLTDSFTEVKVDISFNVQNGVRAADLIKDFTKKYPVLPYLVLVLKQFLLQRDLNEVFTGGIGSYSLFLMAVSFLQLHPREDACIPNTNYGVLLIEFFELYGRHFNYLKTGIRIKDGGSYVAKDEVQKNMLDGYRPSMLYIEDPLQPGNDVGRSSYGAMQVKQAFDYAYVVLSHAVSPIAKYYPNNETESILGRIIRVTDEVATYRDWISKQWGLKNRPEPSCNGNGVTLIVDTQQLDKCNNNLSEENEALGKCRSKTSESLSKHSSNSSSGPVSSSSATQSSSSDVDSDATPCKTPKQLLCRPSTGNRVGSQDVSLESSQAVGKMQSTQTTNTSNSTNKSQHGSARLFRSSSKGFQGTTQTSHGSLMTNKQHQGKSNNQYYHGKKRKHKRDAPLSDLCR
Method in brief: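 Compound-induced shifts in rPAPD5 melting temperature were determined by thermal shift (DSF). Protein at […] was mixed with a non-extendable ATP analog […] in Tris-HCl (25 mM), MgCl2 (5 mM) and KCl (50 mM), with SYPRO orange at 1:5000. Curves were averages of three measurements analyzed with Thermal Shift software, and ΔTm was referenced to DMSO.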

[2] = test system: TERC 3′ end processing in DC patient iPSCs; test: TERC 3′ end processing by RACE in DC patient / PARN-mutant iPSCs; assay type: cell-based, human; conditions: Homo sapiens, iPSC, read-out: iPSC-based RACE activity
Procedure: Compound 266A had activity ˜2-logs higher in the in vitro RNA oligoadenylation assay compared to the parental compound cmpd. 1, approximating the activity of RG7834 (FIG. 7). […] 1. Compounds 295A and 296A had activity 2-3 logs higher in DC patient iPSCs, showing TERC maturation at 1 nM, similar to RG7834 (FIG. 6). […] Referring to Table 1D, “+” refers to activity at 1 μM, “++” refers to activity above 1 nM and below 1 μM, and “+++” refers to activity at <1 nM, “ND” refers to not determined.

[3] = 100 μM test compound, shift vs DMSO control
[4] = patient iPSCs, concentration class at which activity is seen
[5] = 10 μM test compound (Table 2a), read-out: ΔTm at 10 μM

| Compound | ΔTm at 100 µM [1, 3] [°C] | ΔTm at 1 µM ([1]; 1 μM test compound (Table 2a)) [°C] | ΔTm at 10 µM [1, 5] [°C] | also measured |
| --- | --- | --- | --- | --- |
| O=S(=O)(c1cnc2ccc(Cl)cc2c1Nc1ccccc1B(O)O)N1CCOCC1 [Compound 292A, [2-[(6-chloro-3-morpholinosulfonyl-4-quinolyl)amino]phenyl]boronic acid] | 1 to 5 | – | – | – |
| O=C(O)c1cc(C(O)C(F)(F)F)ccc1Nc1c(S(=O)(=O)N2CCOCC2)cnc2ccc(Cl)cc12 (centres unmarked) [Compound 293A, 2-[(6-chloro-3-morpholinosulfonyl-4-quinolyl)amino]-5-(2,2,2-trifluoro-1-hydroxy-ethyl)benzoic acid] | 1 to 5 | – | – | – |
| CCCc1ccc(Nc2c(S(=O)(=O)N3CCOCC3)cnc3ccc(Cl)cc23)c(C(=O)O)c1 [Compound 319A, 2-[(6-chloro-3-morpholinosulfonyl-4-quinolyl)amino]-5-propyl-benzoic acid] | 1 to 5 | – | – | – |
| O=C(O)c1ccccc1Nc1c(S(=O)(=O)N2CCOCC2)cnc2ccc(B(O)O)cc12 [Compound 321A, 2-[(6-borono-3-morpholinosulfonyl-4-quinolyl)amino]benzoic acid] | < 1 | – | – | – |
| O=C(O)c1ccccc1Nc1c(S(=O)(=O)N2CCOCC2)cnc2ccc(O)cc12 [Compound 322A, 2-[(6-hydroxy-3-morpholinosulfonyl-4-quinolyl)amino]benzoic acid] | > 5 | – | – | – |
| O=C(O)c1ccccc1Nc1c(C2CCS(=O)(=O)CC2)c[n+]([O-])c2ccc(Cl)cc12 [Compound 323A, 2-[[6-chloro-3-(1,1-dioxothian-4-yl)-1-oxido-quinolin-1-ium-4-yl]amino]benzoic acid] | > 5 | – | – | – |
| O=C(O)c1c(Nc2c(S(=O)(=O)N3CCOCC3)cnc3ccc(Cl)cc23)ccc(Cl)c1O [Compound 324A, 3-chloro-6-[(6-chloro-3-morpholinosulfonyl-4-quinolyl)amino]-2-hydroxy-benzoic acid] | > 5 | – | – | – |
| O=C(O)c1ccccc1Sc1c(S(=O)(=O)N2CCOCC2)cnc2ccc(Cl)cc12 [Compound 328A] | – | – | – | ΔTm at 100 µM [1]: 1 to 5 °C |
| O=C(O)c1cc(Cl)ccc1Sc1c(S(=O)(=O)N2CCOCC2)cnc2ccc(Cl)cc12 [Compound 330A, 5-chloro-2-[(6-chloro-3-morpholinosulfonyl-4-quinolyl)sulfanyl]benzoic acid] | > 5 | – | – | – |
| O=C(O)c1cc(Cl)ccc1Nc1c(C2=CCNCC2)cnc2ccc(Cl)cc12 [Compound 368A, 5-chloro-2-[[6-chloro-3-(1,2,3,6-tetrahydropyridin-4-yl)-4-quinolyl]amino]benzoic acid] | > 5 | > 5 | > 5 | minimal effective concentration [2, 4]: 1 µM |
| NC(=O)c1ccc(Nc2c(S(=O)(=O)N3CCOCC3)cnc3ccc(Cl)cc23)c(C(=O)O)c1 [Compound 373A, 5-carbamoyl-2-[(6-chloro-3-morpholinosulfonyl-4-quinolyl)amino]benzoic acid] | – | – | – | ΔTm at 100 µM [1]: 1 to 5 °C |
| O=C(O)c1cc(Cl)ccc1Nc1c(C2CCC(F)CC2)cnc2ccc(Cl)cc12 (centres unmarked) [Compound 400A, 5-chloro-2-[[6-chloro-3-(4-fluorocyclohexyl)-4-quinolyl]amino]benzoic acid] | – | – | – | minimal effective concentration [2]: < 0.001 µM; ΔTm at 10 µM ([1]; read-out: ΔTm (Table 2, starred: the compound was tested at 10 μM)): > 5 °C; ΔTm at 1 µM [1]: > 5 °C; ΔTm at 10 µM ([1]; read-out: ΔTm at 10 μM): > 5 °C |
| O=C(O)c1cc(Cl)ccc1Nc1c(S(=O)(=O)N2CCSCC2)cnc2cc(F)c(Cl)cc12 [Compound 415A, 5-chloro-2-[(6-chloro-7-fluoro-3-thiomorpholinosulfonyl-4-quinolyl)amino]benzoic acid] | > 5 | > 5 | > 5 | minimal effective concentration [2, 4]: 1 µM |

Second part, led by results:

| ΔTm at 100 µM [1, 3] [°C] | ΔTm at 1 µM ([1]; 1 μM test compound (Table 2a)) [°C] | ΔTm at 10 µM [1, 5] [°C] | Compound | also measured |
| --- | --- | --- | --- | --- |
| > 5 | – | – | O=C(O)c1ccccc1Nc1c(C2=CCSCC2)cnc2ccc(Cl)cc12 [Compound 299A, 2-[[6-chloro-3-(3,6-dihydro-2H-thiopyran-4-yl)-4-quinolyl]amino]benzoic acid] | – |
| > 5 | – | – | O=C(O)c1cc(F)ccc1Nc1c(-c2ncco2)cnc2ccc(Cl)cc12 [Compound 300A, 2-[(6-chloro-3-oxazol-2-yl-4-quinolyl)amino]-5-fluoro-benzoic acid] | – |
| > 5 | – | – | COc1ccc(Nc2c(-c3ncco3)cnc3ccc(Cl)cc23)c(C(=O)O)c1 [Compound 302A, 2-[(6-chloro-3-oxazol-2-yl-4-quinolyl)amino]-5-methoxy-benzoic acid] | – |
| > 5 | – | – | O=C(O)c1cc(F)ccc1Nc1c(C2=CCOCC2)cnc2ccc(Cl)cc12 [Compound 304A, 2-[[6-chloro-3-(3,6-dihydro-2H-pyran-4-yl)-4-quinolyl]amino]-5-fluoro-benzoic acid] | – |
| > 5 | – | – | COc1ccc(Nc2c(C3=CCOCC3)cnc3ccc(Cl)cc23)c(C(=O)O)c1 [Compound 308A, 2-[[6-chloro-3-(3,6-dihydro-2H-pyran-4-yl)-4-quinolyl]amino]-5-methoxy-benzoic acid] | – |
| > 5 | – | – | CCc1ccc(Nc2c(S(=O)(=O)N3CCOCC3)cnc3ccc(Cl)cc23)c(C(=O)O)c1 [Compound 318A, 2-[(6-chloro-3-morpholinosulfony 1-4-quinolyl)amino]-5-ethyl-benzoic acid] | – |
| 1 to 5 | – | – | CC(C)c1ccc(Nc2c(S(=O)(=O)N3CCOCC3)cnc3ccc(Cl)cc23)c(C(=O)O)c1 [Compound 320A, 2-[(6-chloro-3-morpholinosulfonyl-4-quinolyl)amino]-5-isopropyl-benzoic acid] | – |
| > 5 | – | – | N#Cc1ccc(Nc2c(S(=O)(=O)N3CCOCC3)cnc3ccc(Cl)cc23)c(C(=O)O)c1 [Compound 338A, 2-[(6-chloro-3-morpholinosulfonyl-4-quinolyl)amino]-5-cyano-benzoic acid] | – |
| > 5 | > 5 | > 5 | O=C(O)c1cc(Cl)ccc1Nc1c(C2CCNC2)cnc2ccc(Cl)cc12 (centres unmarked) [Compound 357A, 5-chloro-2-((6-chloro-3-(pyrrolidin-3-yl)quinolin-4-yl)amino)benzoic acid] | minimal effective concentration [2, 4]: 1 µM |
| > 5 | > 5 | > 5 | O=C(O)c1cc(Cl)ccc1Nc1c(-c2nnn[nH]2)cnc2ccc(Cl)cc12 [Compound 359A, 5-chloro-2-[[6-chloro-3-(1H-tetrazol-5-yl)-4-quinolyl]amino]benzoic acid] | – |
| > 5 | > 5 | > 5 | O=C(O)c1cc(Cl)ccc1Nc1c(N2CCNCC2)cnc2ccc(Cl)cc12 [Compound 362A, 5-chloro-2-[(6-chloro-3-piperazin-1-yl-4-quinolyl)amino]benzoic acid] | minimal effective concentration [2, 4]: 1 µM |
| > 5 | > 5 | > 5 | O=C(O)c1cc(Cl)ccc1Nc1c(C(=O)N2CCOCC2)cnc2ccc(Cl)cc12 [Compound 372A, 5-chloro-2-[[6-chloro-3-(morpholine-4-carbonyl)-4-quinolyl]amino]benzoic acid] | minimal effective concentration [2, 4]: 1 µM |
| – | > 5 | > 5 | O=C(O)c1cc(Cl)ccc1Nc1c(N2CCC(OC(F)(F)F)CC2)cnc2ccc(Cl)cc12 [Compound 394A, 5-chloro-2-[[6-chloro-3-[4-(trifluoromethoxy)-1-piperidyl]-4-quinolyl]amino]benzoic acid] | minimal effective concentration [2, 4]: < 0.001 µM; ΔTm at 10 µM ([1]; 10 μM test compound, shift vs DMSO control, read-out: ΔTm (Table 2, starred: the compound was tested at 10 μM)): > 5 °C |
| < 1 | – | – | O=C(O)c1ccc(Nc2c(S(=O)(=O)N3CCOCC3)cnc3ccc(Cl)cc23)c(C(=O)O)c1 [Compound 398A, 4-[(6-chloro-3-morpholinosulfonyl-4-quinolyl)amino]benzene-1,3-dicarboxylic acid] | – |
| > 5 | > 5 | > 5 | O=C(O)c1cc(Cl)ccc1Nc1c(C2=CCOC2)cnc2ccc(Cl)cc12 [Compound 401A, 5-chloro-2-[[6-chloro-3-(2,5-dihydrofuran-3-yl)-4-quinolyl]amino]benzoic acid] | minimal effective concentration [2, 4]: 1 µM |
| > 5 | > 5 | > 5 | O=C(O)c1cc(Cl)ccc1Nc1c(C2=CCNC2)cnc2ccc(Cl)cc12 [Compound 402A, 5-chloro-2-((6-chloro-3-(2,5-dihydro-1H-pyrrol-3-yl)quinolin-4-yl)amino)benzoic acid] | minimal effective concentration [2, 4]: 1 µM |
| > 5 | > 5 | > 5 | O=C1CC=C(c2cnc3ccc(Cl)cc3c2Nc2ccc(Cl)cc2C(=O)O)CC1 [Compound 403A, 5-chloro-2-[[6-chloro-3-(4-oxocyclohexen-1-yl)-4-quinolyl]amino]benzoic acid] | minimal effective concentration [2, 4]: 1 µM |
| > 5 | > 5 | > 5 | O=C(O)c1cc(Cl)ccc1Nc1c(S(=O)(=O)N2CCS(=O)(=O)CC2)cnc2ccc(Cl)cc12 [Compound 429A, 5-chloro-2-[[6-chloro-3-[(1,1-dioxo-1,4-thiazinan-4-yl)sulfonyl]-4-quinolyl]amino]benzoic acid] | – |
